Measured values reported in ChEMBL document CHEMBL4425149, “Lead optimization of a pyrazolo[1,5-a]pyrimidin-7(4H)-one scaffold to identify potent, selective and orally bioavailable KDM5 inhibitors suitable for in vivo biological studies” (Bioorg Med Chem Lett, 2016).
Active and inactive are the calls of the source. The calls are words filed in the database; no cut-off is given here.

Legend:
[1] = target: Lysine-specific demethylase 5A (Homo sapiens, UniProt P29375); assay: Inhibition of KDM5A (unknown origin)
Chain of Lysine-specific demethylase 5A (P29375 whole entry): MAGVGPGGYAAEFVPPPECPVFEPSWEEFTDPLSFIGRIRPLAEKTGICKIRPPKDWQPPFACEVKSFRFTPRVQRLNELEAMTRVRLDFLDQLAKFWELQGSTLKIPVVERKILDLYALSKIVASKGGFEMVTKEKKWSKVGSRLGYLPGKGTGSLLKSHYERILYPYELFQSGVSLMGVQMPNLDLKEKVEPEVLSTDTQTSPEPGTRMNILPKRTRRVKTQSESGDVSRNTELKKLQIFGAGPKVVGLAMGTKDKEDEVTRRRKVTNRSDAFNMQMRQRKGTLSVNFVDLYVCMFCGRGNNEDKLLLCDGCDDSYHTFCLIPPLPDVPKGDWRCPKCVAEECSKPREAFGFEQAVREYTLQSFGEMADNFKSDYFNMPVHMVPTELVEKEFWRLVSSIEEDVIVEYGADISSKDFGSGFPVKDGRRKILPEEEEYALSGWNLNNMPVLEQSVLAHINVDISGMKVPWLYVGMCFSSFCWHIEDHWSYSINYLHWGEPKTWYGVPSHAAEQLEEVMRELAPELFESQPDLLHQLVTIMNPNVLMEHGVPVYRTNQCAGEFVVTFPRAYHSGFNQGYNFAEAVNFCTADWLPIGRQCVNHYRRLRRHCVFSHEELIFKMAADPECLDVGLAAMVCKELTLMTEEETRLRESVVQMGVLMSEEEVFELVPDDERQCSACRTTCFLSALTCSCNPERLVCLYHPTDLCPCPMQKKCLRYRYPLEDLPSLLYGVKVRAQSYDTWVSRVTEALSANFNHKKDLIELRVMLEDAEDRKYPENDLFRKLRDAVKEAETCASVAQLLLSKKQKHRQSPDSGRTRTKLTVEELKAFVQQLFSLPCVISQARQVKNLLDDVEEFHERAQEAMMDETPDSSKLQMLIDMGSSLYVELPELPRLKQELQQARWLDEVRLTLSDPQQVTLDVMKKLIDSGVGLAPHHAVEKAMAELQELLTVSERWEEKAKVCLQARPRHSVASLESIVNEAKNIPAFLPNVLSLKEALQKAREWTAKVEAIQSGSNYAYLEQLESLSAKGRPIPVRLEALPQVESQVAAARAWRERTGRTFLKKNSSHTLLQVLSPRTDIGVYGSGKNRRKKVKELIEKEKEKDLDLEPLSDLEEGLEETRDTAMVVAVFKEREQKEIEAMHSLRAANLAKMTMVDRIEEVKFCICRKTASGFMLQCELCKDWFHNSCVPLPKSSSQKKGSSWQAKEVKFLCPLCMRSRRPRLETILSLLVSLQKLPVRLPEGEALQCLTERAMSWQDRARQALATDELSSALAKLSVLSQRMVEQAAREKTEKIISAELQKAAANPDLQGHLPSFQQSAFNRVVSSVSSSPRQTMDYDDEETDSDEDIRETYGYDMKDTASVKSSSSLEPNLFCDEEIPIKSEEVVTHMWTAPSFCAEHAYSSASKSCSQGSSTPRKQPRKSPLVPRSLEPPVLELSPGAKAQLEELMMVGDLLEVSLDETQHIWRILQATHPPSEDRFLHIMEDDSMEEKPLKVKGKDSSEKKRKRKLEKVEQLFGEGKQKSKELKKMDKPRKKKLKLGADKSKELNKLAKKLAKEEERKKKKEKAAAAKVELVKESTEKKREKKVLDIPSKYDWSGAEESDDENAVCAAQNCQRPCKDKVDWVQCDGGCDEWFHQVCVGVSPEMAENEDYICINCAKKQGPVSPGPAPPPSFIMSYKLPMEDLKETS

[2] = Inhibition of KDM5 in human PC9 cells assessed as demethylation of H3K4Me3; type: cell-based; details: PC-9
[3] = Dissociation constant, pKa of the compound; type: physicochemical
[4] = Half life in CD-1 mouse at 1 mg/kg, iv or 5 mg/kg, po; type: ADME, organism-based; details: in vivo
[5] = Octanol-aqueous buffer distribution coefficient, log D of the compound at pH 7.4; type: physicochemical
[6] = Oral bioavailability in CD-1 mouse at 5 mg/kg; type: ADME, organism-based; details: in vivo
[7] = Protein binding in human plasma; type: ADME, cell-free; details: read-out: PPB (converted)
[8] = Clearance in CD-1 mouse plasma at 1 mg/kg, iv or 5 mg/kg, po; type: ADME, organism-based
[9] = Volume of distribution in CD-1 mouse at 1 mg/kg, iv or 5 mg/kg, po; type: ADME, organism-based; details: in vivo
[10] = Dissociation constant, pKa of the compound at pH 7.4; type: physicochemical
[11] = target: Lysine-specific demethylase 5C (Homo sapiens, UniProt P41229); assay: Inhibition of KDM5C (unknown origin)
[12] = Cmax in mouse at 50 mg/kg, po bid; type: ADME, organism-based; set-up: dose 50 mg/kg, route oral; details: in vivo
[13] = target: Lysine-specific demethylase 5B (Homo sapiens, UniProt Q9UGL1); assay: Inhibition of KDM5B (unknown origin)
[14] = target: Histone lysine demethylase PHF8 (Homo sapiens) (UniProt Q9UPP1); assay: Inhibition of KDM7B (unknown origin)
Chain of Histone lysine demethylase PHF8 (Homo sapiens) (Q9UPP1 whole entry): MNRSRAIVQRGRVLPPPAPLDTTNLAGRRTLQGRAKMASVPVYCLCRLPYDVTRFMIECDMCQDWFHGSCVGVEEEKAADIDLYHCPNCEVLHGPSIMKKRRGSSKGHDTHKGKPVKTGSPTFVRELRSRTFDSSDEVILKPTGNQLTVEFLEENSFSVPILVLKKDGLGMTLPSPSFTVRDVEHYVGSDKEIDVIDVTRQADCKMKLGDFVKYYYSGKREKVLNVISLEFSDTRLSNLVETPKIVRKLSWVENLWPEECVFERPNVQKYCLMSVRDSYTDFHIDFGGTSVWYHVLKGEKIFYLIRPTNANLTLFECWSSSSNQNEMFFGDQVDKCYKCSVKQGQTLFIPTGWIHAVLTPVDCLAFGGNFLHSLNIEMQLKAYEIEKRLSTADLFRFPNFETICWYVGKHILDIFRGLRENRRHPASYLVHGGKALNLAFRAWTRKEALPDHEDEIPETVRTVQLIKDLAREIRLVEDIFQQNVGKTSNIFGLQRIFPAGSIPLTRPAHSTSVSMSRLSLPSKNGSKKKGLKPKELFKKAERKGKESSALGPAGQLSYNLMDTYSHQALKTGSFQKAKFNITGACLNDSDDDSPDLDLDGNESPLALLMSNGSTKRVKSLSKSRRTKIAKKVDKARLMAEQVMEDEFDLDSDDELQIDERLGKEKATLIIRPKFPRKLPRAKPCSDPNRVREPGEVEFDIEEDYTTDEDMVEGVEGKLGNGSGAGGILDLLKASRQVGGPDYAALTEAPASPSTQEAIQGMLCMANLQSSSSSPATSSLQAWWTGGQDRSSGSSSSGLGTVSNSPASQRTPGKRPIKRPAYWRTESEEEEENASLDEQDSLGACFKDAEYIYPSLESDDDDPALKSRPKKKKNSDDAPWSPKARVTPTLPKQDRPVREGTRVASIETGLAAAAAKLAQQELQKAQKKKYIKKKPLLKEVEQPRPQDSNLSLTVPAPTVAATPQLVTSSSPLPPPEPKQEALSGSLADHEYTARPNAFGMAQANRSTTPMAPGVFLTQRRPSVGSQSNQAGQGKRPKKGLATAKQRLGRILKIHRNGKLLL

[15] = target: Lysine-specific demethylase 6A (Homo sapiens) (UniProt O15550); assay: Inhibition of KDM6A (unknown origin)
Chain of Lysine-specific demethylase 6A (Homo sapiens) (O15550 whole entry): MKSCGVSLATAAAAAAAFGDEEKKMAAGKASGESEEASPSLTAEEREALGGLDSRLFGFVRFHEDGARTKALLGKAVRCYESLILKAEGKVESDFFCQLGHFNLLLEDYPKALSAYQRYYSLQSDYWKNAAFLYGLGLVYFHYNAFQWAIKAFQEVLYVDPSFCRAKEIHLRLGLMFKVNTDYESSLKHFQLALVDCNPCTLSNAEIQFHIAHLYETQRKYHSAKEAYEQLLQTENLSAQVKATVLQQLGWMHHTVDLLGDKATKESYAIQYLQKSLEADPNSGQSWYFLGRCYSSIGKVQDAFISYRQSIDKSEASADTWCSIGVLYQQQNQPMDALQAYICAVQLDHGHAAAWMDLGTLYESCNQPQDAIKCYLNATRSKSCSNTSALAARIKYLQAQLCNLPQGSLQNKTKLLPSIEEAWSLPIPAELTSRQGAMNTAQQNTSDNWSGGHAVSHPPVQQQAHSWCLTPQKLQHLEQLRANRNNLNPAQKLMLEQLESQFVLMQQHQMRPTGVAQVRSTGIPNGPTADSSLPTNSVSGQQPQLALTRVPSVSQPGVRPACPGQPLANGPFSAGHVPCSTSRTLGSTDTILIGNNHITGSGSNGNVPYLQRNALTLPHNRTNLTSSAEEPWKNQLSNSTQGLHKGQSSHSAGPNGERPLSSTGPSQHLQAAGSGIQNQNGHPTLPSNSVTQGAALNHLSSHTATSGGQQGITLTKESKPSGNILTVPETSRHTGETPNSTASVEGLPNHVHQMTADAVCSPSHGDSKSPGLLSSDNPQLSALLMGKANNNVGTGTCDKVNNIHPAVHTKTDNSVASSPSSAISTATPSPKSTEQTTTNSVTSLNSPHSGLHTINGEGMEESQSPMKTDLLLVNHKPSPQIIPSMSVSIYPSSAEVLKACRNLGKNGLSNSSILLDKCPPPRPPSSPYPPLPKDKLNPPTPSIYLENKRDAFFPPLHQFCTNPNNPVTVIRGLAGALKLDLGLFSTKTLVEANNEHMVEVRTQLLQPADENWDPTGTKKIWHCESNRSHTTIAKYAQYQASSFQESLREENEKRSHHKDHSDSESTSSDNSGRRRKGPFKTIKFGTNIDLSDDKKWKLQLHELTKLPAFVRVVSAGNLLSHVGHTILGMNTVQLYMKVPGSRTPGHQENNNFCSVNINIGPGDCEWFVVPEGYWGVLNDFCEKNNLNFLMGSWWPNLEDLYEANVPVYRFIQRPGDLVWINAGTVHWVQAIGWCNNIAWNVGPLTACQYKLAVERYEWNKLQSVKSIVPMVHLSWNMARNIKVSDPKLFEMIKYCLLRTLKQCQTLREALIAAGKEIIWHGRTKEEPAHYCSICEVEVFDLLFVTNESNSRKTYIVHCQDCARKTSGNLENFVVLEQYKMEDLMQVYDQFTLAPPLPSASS

[16] = fCmax in mouse at 50 mg/kg, po bid; type: ADME, organism-based; details: in vivo
[17] = target: Lysine-specific demethylase 3B (Homo sapiens) (UniProt Q7LBC6); assay: Inhibition of KDM3B (unknown origin)
[18] = target: Lysine-specific histone demethylase 1A (Homo sapiens) (UniProt O60341); assay: Inhibition of KDM1A (unknown origin)
[19] = target: T1, Lysine-specific demethylase 2B (Homo sapiens) (UniProt Q8NHM5); assay: Inhibition of KDM2B (unknown origin)
T1 sequence (whole entry): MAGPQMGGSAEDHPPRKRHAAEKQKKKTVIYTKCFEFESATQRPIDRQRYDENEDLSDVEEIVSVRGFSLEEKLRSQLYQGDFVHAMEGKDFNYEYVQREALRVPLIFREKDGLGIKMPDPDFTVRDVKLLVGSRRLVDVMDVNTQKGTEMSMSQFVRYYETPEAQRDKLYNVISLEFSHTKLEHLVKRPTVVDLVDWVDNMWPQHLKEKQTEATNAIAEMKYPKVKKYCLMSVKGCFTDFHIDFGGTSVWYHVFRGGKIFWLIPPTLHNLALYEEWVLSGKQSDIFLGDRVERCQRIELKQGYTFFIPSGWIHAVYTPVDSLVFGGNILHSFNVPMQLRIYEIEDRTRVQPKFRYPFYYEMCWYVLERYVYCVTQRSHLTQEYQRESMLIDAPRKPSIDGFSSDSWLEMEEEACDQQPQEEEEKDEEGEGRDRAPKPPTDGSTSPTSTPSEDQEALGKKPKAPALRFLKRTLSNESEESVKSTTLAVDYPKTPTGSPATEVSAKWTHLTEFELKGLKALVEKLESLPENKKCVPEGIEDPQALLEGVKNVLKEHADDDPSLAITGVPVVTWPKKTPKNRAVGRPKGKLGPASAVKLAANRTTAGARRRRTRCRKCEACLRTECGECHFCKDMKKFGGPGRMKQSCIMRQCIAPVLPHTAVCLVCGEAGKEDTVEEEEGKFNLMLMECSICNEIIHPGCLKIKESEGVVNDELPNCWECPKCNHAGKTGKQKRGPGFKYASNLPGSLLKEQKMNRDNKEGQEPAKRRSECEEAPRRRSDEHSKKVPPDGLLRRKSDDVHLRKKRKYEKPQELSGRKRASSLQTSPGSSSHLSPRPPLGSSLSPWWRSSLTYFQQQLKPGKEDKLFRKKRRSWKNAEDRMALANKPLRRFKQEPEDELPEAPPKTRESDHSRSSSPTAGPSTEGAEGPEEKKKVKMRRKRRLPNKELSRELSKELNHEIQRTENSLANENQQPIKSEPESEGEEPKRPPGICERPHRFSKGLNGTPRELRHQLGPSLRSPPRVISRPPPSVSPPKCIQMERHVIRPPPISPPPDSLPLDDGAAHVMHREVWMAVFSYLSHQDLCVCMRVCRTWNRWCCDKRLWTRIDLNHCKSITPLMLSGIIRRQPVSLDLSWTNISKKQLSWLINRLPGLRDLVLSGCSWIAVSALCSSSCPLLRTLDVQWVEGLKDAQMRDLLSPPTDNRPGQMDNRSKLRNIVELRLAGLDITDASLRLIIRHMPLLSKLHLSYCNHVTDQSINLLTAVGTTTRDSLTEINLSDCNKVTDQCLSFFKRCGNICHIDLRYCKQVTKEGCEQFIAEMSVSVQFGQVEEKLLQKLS

[20] = Protein binding in mouse plasma; type: ADME, cell-free; details: read-out: PPB (converted)

SMILES	IC50 [1]	EC50 [2]	other results
Cc1ccc(-c2[nH]c3c(C#N)cnn3c(=O)c2C(C)C)cc1	0.0203 µM	–	–
CC(C)c1c(Cc2ccccc2)[nH]c2c(C#N)cnn2c1=O	0.0119 µM	> 30 µM	–
CC(C)c1c(Oc2ccccc2)[nH]c2c(C#N)cnn2c1=O	0.018 µM	> 30 µM	pKa [3]: 9.8
CC(C)c1c(N(C)C)[nH]c2c(C#N)cnn2c1=O	0.0766 µM	–	–
CCC(C)c1c(-c2ccccc2)[nH]c2c(C#N)cnn2c1=O (racemic)	–	28.4 µM	–
COc1cc(-c2[nH]c3c(C#N)cnn3c(=O)c2C(C)C)ccn1	0.0316 µM	–	–
CC(C)c1c(-c2cccnc2)[nH]c2c(C#N)cnn2c1=O	0.0123 µM	9.3 µM	–
CC(C)c1c(-c2cnn(C(C)C)c2)[nH]c2c(C#N)cnn2c1=O	0.0138 µM	0.44 µM	half-life [4]: 36.6 min; logD [5]: 0.93; bioavailability [6]: 69.5%; fraction unbound [7]: 0.013; clearance [8]: 15.7 mL/min/kg; Vd [9]: 0.54 L/kg
CC(C)c1c(-c2cnn(CCC#N)c2)[nH]c2c(C#N)cnn2c1=O	0.0101 µM	2.9 µM	logD [5]: -0.45; fraction unbound [7]: 0.066
CCc1[nH]c2c(C#N)cnn2c(=O)c1C(C)C	0.0095 µM	12.1 µM	–
CC(C)c1c(CCc2ccccc2)[nH]c2c(C#N)cnn2c1=O	0.0131 µM	> 30 µM	–
CC(C)c1c(/C=C/c2ccccc2)[nH]c2c(C#N)cnn2c1=O	0.0175 µM	–	–
COCCn1cc(-c2[nH]c3c(C#N)cnn3c(=O)c2C(C)C)cn1	0.0104 µM	1.8 µM	logD [5]: 0.4; fraction unbound [7]: 0.033
C=CC(C)c1c(-c2ccccc2)[nH]c2c(C#N)cnn2c1=O (racemic)	0.0155 µM	16.4 µM	–
CC(C)c1c(-c2cnn(-c3ccccc3)c2)[nH]c2c(C#N)cnn2c1=O	0.0056 µM	1.7 µM	half-life [4]: 66 min; logD [5]: 1.8; bioavailability [6]: 21.3%; fraction unbound [7]: 0.001; clearance [8]: 7.7 mL/min/kg; Vd [9]: 0.63 L/kg
C#CC(C)c1c(-c2ccccc2)[nH]c2c(C#N)cnn2c1=O (racemic)	0.0128 µM	11.3 µM	–
CC(CO)c1c(-c2ccccc2)[nH]c2c(C#N)cnn2c1=O (configuration not stated)	0.029 µM	–	–
CC(C)c1c(-c2ccc(C(F)(F)F)cc2)[nH]c2c(C#N)cnn2c1=O	0.0182 µM	–	–
CC(C)c1c(-c2cn[nH]c2)[nH]c2c(C#N)cnn2c1=O	0.0053 µM	1.2 µM	fraction unbound [7]: 0.026
CC(C)c1c(-c2cncnc2)[nH]c2c(C#N)cnn2c1=O	–	> 30 µM	–
N#Cc1cnn2c(=O)c(Br)c(-c3ccccc3)[nH]c12	0.0293 µM	–	–

SMILES	IC50 [1]	EC50 [2]	other results
CC(C)c1c(-c2cnn(C)c2)[nH]c2c(C#N)cnn2c1=O	0.0133 µM	2 µM	half-life [4]: 10.2 min; logD [5]: 0.4; bioavailability [6]: 61.3%; fraction unbound [7]: 0.011; clearance [8]: 59.9 mL/min/kg; Vd [9]: 0.6 L/kg
CC(C)c1c(N2CCCCC2)[nH]c2c(C#N)cnn2c1=O	0.0632 µM	–	–
C=Cc1c(-c2ccccc2)[nH]c2c(C#N)cnn2c1=O	0.0201 µM	–	–
CC(C)c1c(-c2ccc(OC(F)(F)F)cc2)[nH]c2c(C#N)cnn2c1=O	0.0359 µM	–	–
CC(C)c1c(-c2cnn(C3COC3)c2)[nH]c2c(C#N)cnn2c1=O	0.0159 µM	8.3 µM	logD [5]: -0.1; fraction unbound [7]: 0.04
CC(C)c1c(-c2cccc(OC(F)(F)F)c2)[nH]c2c(C#N)cnn2c1=O	0.0289 µM	–	–
C=C(C)c1c(-c2ccccc2)[nH]c2c(C#N)cnn2c1=O	0.0247 µM	–	–
CC(C)c1c(-c2ccccc2)[nH]c2c(C#N)cnn2c1=O	–	–	pKa [10]: 6
Cc1[nH]c2c(C#N)cnn2c(=O)c1C(C)C	0.0093 µM	13.8 µM	–
CC(C)c1c(-c2cnn(C3CCC3)c2)[nH]c2c(C#N)cnn2c1=O	0.0112 µM	0.87 µM	logD [5]: 1.3; fraction unbound [7]: 0.004
CC(C)c1c(-c2ccco2)[nH]c2c(C#N)cnn2c1=O	0.0062 µM	6.7 µM	–
COC(=O)c1c(-c2ccccc2)[nH]c2c(C#N)cnn2c1=O	0.319 µM	–	–
CCn1cc(-c2[nH]c3c(C#N)cnn3c(=O)c2C(C)C)cn1	–	2.3 µM	logD [5]: 0.66; fraction unbound [7]: 0.005
CC(C)c1c(-c2cnn(C3CC3)c2)[nH]c2c(C#N)cnn2c1=O	0.0079 µM	1.3 µM	logD [5]: 0.74; fraction unbound [7]: 0.008
CC(C)c1c(-c2cnn(C(C)(C)C)c2)[nH]c2c(C#N)cnn2c1=O	0.0151 µM	0.34 µM	half-life [4]: 78 min; IC50 [11]: 0.0655 µM; logD [5]: 1.4; Cmax [12]: 206 µM; IC50 [13]: 0.0047 µM; inhibition [14]: inactive; bioavailability [6]: 100%; inhibition [15]: inactive; fCmax [16]: 5.2 µM; fraction unbound [7]: 0.012; inhibition [17]: inactive; clearance [8]: 5 mL/min/kg; inhibition [18]: inactive; Vd [9]: 0.44 L/kg; inhibition [19]: inactive; fraction unbound [20]: 0.025
C#CCc1c(-c2ccccc2)[nH]c2c(C#N)cnn2c1=O	0.0211 µM	–	–
CC(C)c1c[nH]c2c(C#N)cnn2c1=O	0.0283 µM	–	–
N#Cc1cnn2c(=O)c(C3CCC3)c(-c3ccccc3)[nH]c12	0.0092 µM	> 30 µM	–
CC(C)c1c(Nc2ccccc2)[nH]c2c(C#N)cnn2c1=O	0.0275 µM	> 30 µM	pKa [3]: 8.2
CC(C)c1c(-c2ccc(Cl)cc2)[nH]c2c(C#N)cnn2c1=O	0.0204 µM	–	–
CC(C)c1c(-c2cccc(C(F)(F)F)c2)[nH]c2c(C#N)cnn2c1=O	–	7.5 µM	–
